Consider twelve compounds from ChEMBL document CHEMBL3286185, “Constituents of the roots of Clausena lansium and their potential anti-inflammatory activity” (J Nat Prod, 2014).

The nature of test [1]: Antiinflammatory activity in human neutrophil assessed as inhibition of FMLP/CB-induced elastase release for 5 mins. It is filed as functional, cell-based.
The nature of test [2]: Antiinflammatory activity in human neutrophil assessed as inhibition of FMLP/CB-induced superoxide anion generation pretreated for 5 mins by spectrophotometry. It is filed as functional, cell-based.

Turning to `CC(C)=CCC/C(C)=C/COc1c2occc2cc2ccc(=O)oc12`, the values for the concentration for half-maximal inhibition (IC50) in test [1] and in test [2] were above 10 µM and 1.9 µM, respectively.
Turning to `CC(C)=CCc1c(C=O)cc(O)c2[nH]c3ccccc3c12`, the figures for the IC50 in test [1] and in test [2] were 2 µM and above 10 µM, respectively.
In the case of `C/C(=C\COc1c2occc2cc2ccc(=O)oc12)C[C@H]1C[C@H](C)C(=O)O1`, the IC50 – broadly, the concentration that gives 50% inhibition – was above 10 µM in test [1] and 8.4 µM in test [2].
Consider `CC1=C[C@H](C/C(C)=C\COc2c3occc3cc3ccc(=O)oc23)OC1=O`, for which the IC50 in test [1] is above 10 µM; in test [2], 6.1 µM.
On the same counts, the results for `COC(=O)c1ccc2[nH]c3ccccc3c2c1` are above 10 µM and 4.3 µM.
Consider `COc1ccc2[nH]c3cc(OC)c(C=O)cc3c2c1` [GLYCOZOLIDAL], for which the 50% inhibitory concentration (IC50) in test [1] was above 10 µM; in test [2], 4.6 µM.
`CC(C)=CCOc1c2ccoc2cc2oc(=O)ccc12` [ISOIMPERATORIN]: the results for the concentration for half-maximal inhibition (IC50) in test [1] and in test [2] were above 10 µM and 4.2 µM, respectively.
The like results for `O=c1cc(N2CCOCC2)oc2c(-c3ccccc3)cccc12` [LY-294002] were, in that order, 1.5 µM and 1 µM.
On the same counts, the results for `COc1cc(C=O)cc2c1[nH]c1ccccc12` [MURRAYANINE] are 3.9 µM and 3.5 µM.
Consider `O=Cc1cc(O)c2[nH]c3ccccc3c2c1` [O-DEMETHYLMURRAYANINE], for which the IC50 in test [1] was determined as 6.9 µM; in test [2] it was 3.5 µM.
On to `CC(C)=CCc1c(O)ccc2ccc(=O)oc12` [OSTHENOL], for which the figures for the IC50 in test [1] and in test [2] were above 10 µM and 2.6 µM, respectively.
The like results for `CC(C)=CCOc1c2occc2cc2ccc(=O)oc12` [PENTOSALEN] were, in that order, above 10 µM and 3.5 µM.
